This assay is described as follows: Neuroprotective activity against glutamate-induced toxicity in Sprague-Dawley rat cortical cells assessed as cell viability at 5 uM pretreated 1 hr before glutamate challenge by LDH release assay. The assay is classed as functional. Particulars: read-out: Activity. On the technique in general: LDH leaks from cells whose membrane has failed.

Consider `C=C(C)[C@@H]1CC[C@]2(C)C[C@H](OC(=O)c3ccc(O)cc3)[C@]3(C)[C@H](C[C@@H](OC(=O)c4ccc(O)c(OC)c4)[C@@H]4[C@@]5(C)CC[C@H](O)C(C)(C)[C@@H]5CC[C@]43C)[C@@H]12` [ULMICIN C], for which the viability at 5 µM is 49.2%.
For `C=C(C)[C@@H]1CC[C@]2(C)C[C@H](O)[C@]3(C)[C@H](C[C@@H](OC(=O)c4ccc(O)c(OC)c4)[C@@H]4[C@@]5(C)CC[C@H](O)C(C)(C)[C@@H]5CC[C@]43C)[C@@H]12` [ULMICIN A] the value was 48%; for `C=C(C)[C@@H]1CC[C@]2(C)C[C@H](OC(=O)c3ccc(O)c(OC)c3)[C@]3(C)[C@H](C[C@@H](OC(=O)c4ccc(O)c(OC)c4)[C@@H]4[C@@]5(C)CC[C@H](O)C(C)(C)[C@@H]5CC[C@]43C)[C@@H]12` [ULMICIN D], 44.2%; for `C=C(C)[C@@H]1CC[C@]2(C)C[C@H](O)[C@]3(C)[C@H](C[C@@H](OC(=O)c4ccc(O)cc4)[C@@H]4[C@@]5(C)CC[C@H](O)C(C)(C)[C@@H]5CC[C@]43C)[C@@H]12` [ULMICIN B], 51.2%.
As for `C=C(C)[C@@H]1CC[C@]2(C)C[C@H](OC(=O)c3ccccc3)[C@]3(C)[C@H](C[C@@H](OC(=O)c4ccc(O)c(OC)c4)[C@@H]4[C@@]5(C)CC[C@H](O)C(C)(C)[C@@H]5CC[C@]43C)[C@@H]12` [ULMICIN E], the viability at 5 µM amounted to 41%.

These data come from ChEMBL document CHEMBL1150570, “Five novel neuroprotective triterpene esters of Ulmus davidiana var. japonica” (2001).
